Data taken from PubChem BioAssay AID2060494 (Molecular Pharmacology Branch, DTP, NCI, 2025).

Tested on: 435261-313-R-J1-PDC complex spheroid viability
Experiment: Anticancer human tumor 435261-313-R-J1-PDC patient-derived colon adenocarcinoma cell line growth inhibition [GQUAD]
Details: for IC50: curve of first compound; for viability, T/C: stronger effect = lower value
How it was run: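 Multi-cell-type spheroids of tumor cells with HUVEC and mesenchymal stem cells, treated with drug combinations. Concentrations descend in half-log steps from near clinical Cmax, or from 10 microM where Cmax is unknown; viability read-out.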
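Further: spheroids exposed to the agents for seven days before readout.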
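Wherever viability, T/C is given: percent of vehicle control viability with DMSO wells as 100%.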

In the case of CC1COCCN1c1cc(C2(S(C)(=N)=O)CC2)nc(-c2ccnc3[nH]ccc23)n1 (configuration not stated) + Cc1[nH]c2ccc(F)cc2c1-c1nc2c3cccnc3c3ncccc3c2[nH]1, the IC50 (second compound 0.0316 µM) is reported as greater than 10000 nM, the IC50 (second compound 0.1 µM) is reported as greater than 10000 nM and the IC50 (second compound 0.316 µM) is reported as 3270 nM. For the same compound, the IC50 (second compound 1 µM) was 1280 nM, the IC50 (second compound 3.16 µM) was less than 31.6 nM and the IC50 (second compound 10 µM) was less than 31.6 nM. It also gave a viability, T/C (second compound 0.0316 µM, first compound 0.0316 µM) of 111%, a viability, T/C (second compound 0.0316 µM, first compound 0.1 µM) of 85.9% and a viability, T/C (second compound 0.0316 µM, first compound 0.316 µM) of 107%. The viability, T/C (second compound 0.0316 µM, first compound 1 µM) was 60.5%, the viability, T/C (second compound 0.0316 µM, first compound 3.16 µM) was 66% and the viability, T/C (second compound 0.0316 µM, first compound 10 µM) was 52.2%. It also gave a viability, T/C (second compound 0.1 µM, first compound 0.0316 µM) of 93%, a viability, T/C (second compound 0.1 µM, first compound 0.1 µM) of 106% and a viability, T/C (second compound 0.1 µM, first compound 0.316 µM) of 90.5%. The viability, T/C (second compound 0.1 µM, first compound 1 µM) was 83.7%, the viability, T/C (second compound 0.1 µM, first compound 3.16 µM) was 80.2% and the viability, T/C (second compound 0.1 µM, first compound 10 µM) was 55.4%. For the same compound, the viability, T/C (second compound 0.316 µM, first compound 0.0316 µM) was 94.2%, the viability, T/C (second compound 0.316 µM, first compound 0.1 µM) was 127% and the viability, T/C (second compound 0.316 µM, first compound 0.316 µM) was 74.8%. For the same compound, the viability, T/C (second compound 0.316 µM, first compound 1 µM) was 106%, the viability, T/C (second compound 0.316 µM, first compound 3.16 µM) was 50.1% and the viability, T/C (second compound 0.316 µM, first compound 10 µM) was 47.9%. The viability, T/C (second compound 1 µM, first compound 0.0316 µM) was 54.4%, the viability, T/C (second compound 1 µM, first compound 0.1 µM) was 65.6% and the viability, T/C (second compound 1 µM, first compound 0.316 µM) was 68%. The viability, T/C (second compound 1 µM, first compound 1 µM) was 52.6%, the viability, T/C (second compound 1 µM, first compound 3.16 µM) was 36.4% and the viability, T/C (second compound 1 µM, first compound 10 µM) was 30%. For the same compound, the viability, T/C (second compound 3.16 µM, first compound 0.0316 µM) was 29.6%, the viability, T/C (second compound 3.16 µM, first compound 0.1 µM) was 37.1% and the viability, T/C (second compound 3.16 µM, first compound 0.316 µM) was 30.3%. It also gave a viability, T/C (second compound 3.16 µM, first compound 1 µM) of 28.9%, a viability, T/C (second compound 3.16 µM, first compound 3.16 µM) of 21.6% and a viability, T/C (second compound 3.16 µM, first compound 10 µM) of 12.2%. The viability, T/C (second compound 10 µM, first compound 0.0316 µM) was 30.7%, the viability, T/C (second compound 10 µM, first compound 0.1 µM) was 22.6% and the viability, T/C (second compound 10 µM, first compound 0.316 µM) was 28.1%. For the same compound, the viability, T/C (second compound 10 µM, first compound 1 µM) was 18.4%, the viability, T/C (second compound 10 µM, first compound 3.16 µM) was 14.9% and the viability, T/C (second compound 10 µM, first compound 10 µM) was 8.85%.
